Experimental findings from patent US5420140A, “Difluorinated quinolones useful for treating bacterial infections” (Bouchara S.A., priority 1991, dated 1995) are described below.

Structures are written as SMILES. Converted amounts (≈) assume the structure as drawn.

For experiment [1], the system named is Escherichia coli ATCC 25922. The experiment can be described thus: Determination of MIC and MBC by microdilution method, Escherichia coli ATCC 25922. It counts as cell-based. Conditions: E. coli ATCC 25922; for MIC / MBC: Escherichia coli, ATCC25922; for MIC / Minimal inhibitory concentration (MIC): Mueller-Hinton broth, 18 hours at 37°; for MIC: read-out: Minimal inhibitory concentration (MIC); for MBC: read-out: Minimal bactericidal concentration (MBC). As for the experimental part:
(§1) The compound have been tested towards 7 reference strains:
Escherichia coli ATCC 25922
(§2) The determination of minimal inhibitory concentrations (MIC) has been performed using a microdution method (microplates and inoculator Dynatech) in liquid medium (MUELLER-HINTON broth) under a volume of 100 μl and for a range of concentrations from 128 to 0.06 mg/l, prepared from a mother liquor of antibiotics titrating 512 mg/l. The preparation of these mother liquors has been performed and vary depending on the molecules as a function of the solubility criterions. Inoculation has been done by adding in each will, 10 μl of a dilution in saline of 18 hours old broth in a brain-heart broth, such as each well contains about 10^6 bacterias/ml.
(§3) The Minimal Inhibitory Concentrations are read as the first concentration of antibiotic which will not give a growth macroscopically detectable after 18 hours incubating at 37°.
Background: In broth dilution the organism is exposed to a series of concentrations in liquid medium.

The subject of experiment [2] is Staphylococcus aureus ATCC 25923. The experiment can be described thus: Determination of MIC and MBC by microdilution method, Staphylococcus aureus ATCC 25923. It counts as cell-based. Particulars: for MIC / MBC: Staphylococcus aureus; for MIC: ATCC25923, 18 h, read-out: Minimal inhibitory concentration (MIC); for MIC / Minimal bactericidal concentration (MBC) / Minimal inhibitory concentration (MIC): S. aureus ATCC 25923; for MIC / Minimal inhibitory concentration (MIC): Mueller-Hinton broth, 18 hours at 37°; for MBC: ATCC25923, S. aureus ATCC 25923, read-out: Minimal bactericidal concentration (MBC). As for the experimental part: as §1
Staphylococcus aureus ATCC 25923
as §2, §3

Experiment [3] has as its system Acinetobacter Baumanii ATCC 17904. The experiment can be described thus: Determination of MIC and MBC by microdilution method, Acinetobacter. Conditions: for MIC / MBC: Acinetobacter baumannii; for MIC: ATCC17904, 18 h, read-out: Minimal inhibitory concentration (MIC); for MIC / Minimal bactericidal concentration (MBC) / Minimal inhibitory concentration (MIC): Acinetobacter Baumanii ATCC 17904; for MIC / Minimal inhibitory concentration (MIC): Mueller-Hinton broth, 18 hours at 37°; for MBC: ATCC17904, Acinetobacter Baumanii ATCC 17904, read-out: Minimal bactericidal concentration (MBC). The experiment is classed as cell-based. The method, then: The compound have been tested towards 7 reference strains: […]
as §2, §3

The test system of experiment [4] is Streptococcus faecalis ATCC 8043. The experiment can be described thus: Determination of MIC and MBC by microdilution method, Streptococcus faecalis ATCC 8043. It counts as cell-based. Conditions: for MBC / MIC: Enterococcus faecalis; for MBC: ATCC8043, S. faecalis ATCC 8043, read-out: Minimal bactericidal concentration (MBC); for MIC: ATCC8043, read-out: Minimal inhibitory concentration (MIC); for MIC / Minimal bactericidal concentration (MBC) / Minimal inhibitory concentration (MIC): S. faecalis ATCC 8043; for MIC / Minimal inhibitory concentration (MIC): Mueller-Hinton broth, 18 hours at 37°. As for the experimental part:
as §1
Streptococcus faecalis ATCC 8043
(§4) The preparation of these mother liquors has been performed and vary depending on the molecules as a function of the solubility criterions. Inoculation has been done by adding in each will, 10 μl of a dilution in saline of 18 hours old broth in a brain-heart broth, such as each well contains about 10^6 bacterias/ml. […]

Experiment [5] concerns Pseudomonas aeruginosa ATCC 22853. The experiment can be described thus: Determination of MIC and MBC by microdilution method, Pseudomonas aeruginosa ATCC 22853. The experiment is classed as cell-based. Particulars: for MIC / MBC: Pseudomonas aeruginosa; for MIC: ATCC22853, 18 h, read-out: Minimal inhibitory concentration (MIC); for MIC / Minimal bactericidal concentration (MBC) / Minimal inhibitory concentration (MIC): P. aeruginosa ATCC 22853; for MIC / Minimal inhibitory concentration (MIC): Mueller-Hinton broth, 18 hours at 37°; for MBC: ATCC22853, P. aeruginosa ATCC 22853, read-out: Minimal bactericidal concentration (MBC). As for the experimental part:
as §1
Pseudomonas aeruginosa ATCC 22853
as §4

In another experiment the test system is S. aureus CB-951. The experiment can be described thus: Determination of MIC and MBC by microdilution method, S. aureus CB-951. Particulars: erythromycinolincomycino, pefloxacino resistant; for MIC / MBC: Staphylococcus aureus; for MIC: CB951, 18 h, read-out: Minimal inhibitory concentration (MIC); for MIC / Minimal bactericidal concentration (MBC) / Minimal inhibitory concentration (MIC): S. aureus CB-951, methicillino; for MIC / Minimal inhibitory concentration (MIC): Mueller-Hinton broth, 18 hours at 37°; for MBC: CB951, S. aureus CB-951, methicillino, read-out: Minimal bactericidal concentration (MBC). The experiment is classed as cell-based, Staphylococcus aureus. The method, then: as §1
Staphylococcus aureus CB 951
as §2, §3

On to `CCn1cc(C(=O)O)c(=O)c2cc(F)c(N3CCC(CNC(=O)Nc4ccc(C)cc4)CC3)c(F)c21` [Compound 12], for which the MIC is over 16 µg/mL in experiment [1]; 0.06 µg/mL (≈ 0.12 µM) in experiment [2]; 0.06 µg/mL (≈ 0.12 µM) in experiment [3]; 4 µg/mL (≈ 8.02 µM) in experiment [4]; over 16 µg/mL in experiment [5]; 0.25 µg/mL (≈ 0.501 µM) in the experiment with S. aureus CB-951. Further, the MBC was over 16 µg/mL in experiment [1]; 0.06 µg/mL (≈ 0.12 µM) in experiment [2]; 0.06 µg/mL (≈ 0.12 µM) in experiment [3]; 4 µg/mL (≈ 8.02 µM) in experiment [4]; over 16 µg/mL in experiment [5]; 1 µg/mL (≈ 2.01 µM) with S. aureus CB-951.
Turning to `CCn1cc(C(=O)O)c(=O)c2cc(F)c(N3CCC(CNC(=O)Nc4cccc(F)c4)CC3)c(F)c21` [Compound 13, 7-[4-(3-fluorophenyl)aminocarbonylaminomethylpiperidinyl-1] 6,8-difluoro 1-ethyl], the MIC in experiment [1] was over 16 µg/mL; in experiment [2], 0.12 µg/mL (≈ 0.239 µM); in experiment [3] it was 0.06 µg/mL (≈ 0.119 µM); in experiment [4] it was over 16 µg/mL; in experiment [5], over 16 µg/mL; in the experiment on S. aureus CB-951, 0.25 µg/mL (≈ 0.498 µM). In addition, the MBC is over 16 µg/mL in experiment [1]; 0.25 µg/mL (≈ 0.498 µM) in experiment [2]; 0.06 µg/mL (≈ 0.119 µM) in experiment [3]; over 16 µg/mL in experiment [4]; over 16 µg/mL in experiment [5]; 0.5 µg/mL (≈ 0.995 µM) in the experiment with S. aureus CB-951.
For the compound `CCn1cc(C(=O)O)c(=O)c2cc(F)c(N3CCC(CNC(=O)Nc4ccc(Cl)c(Cl)c4)CC3)c(F)c21` [Compound 14, 7-[4-(3,4-dichlorophenyl)aminocarbonylaminomethylpiperidinyl-1] 6,8-difluoro 1-ethyl], the MIC in experiment [1] was over 16 µg/mL; in experiment [2], 2 µg/mL (≈ 3.61 µM); in experiment [3], 4 µg/mL (≈ 7.23 µM); in experiment [4], over 16 µg/mL; in experiment [5] it was over 16 µg/mL; in the experiment with S. aureus CB-951 it was 16 µg/mL (≈ 28.9 µM). The MBC in experiment [1] is over 16 µg/mL; in experiment [2], 8 µg/mL (≈ 14.5 µM); in experiment [3], 8 µg/mL (≈ 14.5 µM); in experiment [4], over 16 µg/mL; in experiment [5], over 16 µg/mL; in the experiment on S. aureus CB-951, over 16 µg/mL.
For the compound `CCOC(=O)c1ccc(NC(=O)NCC2CCN(c3c(F)cc4c(=O)c(C(=O)O)cn(CC)c4c3F)CC2)cc1` [Compound 15, 7-[4-(4-ethoxycarbonylphenyl)aminocarbonylaminomethylpiperidinyl-1] 6,8-difluoro 1-ethyl], the MIC in experiment [1] is over 16 µg/mL; in experiment [2], 0.12 µg/mL (≈ 0.216 µM); in experiment [3] it was 0.12 µg/mL (≈ 0.216 µM); in experiment [4], over 16 µg/mL; in experiment [5] it was over 16 µg/mL; in the experiment on S. aureus CB-951 it was 1 µg/mL (≈ 1.8 µM). Moreover, the MBC in experiment [1] was over 16 µg/mL; in experiment [2], 0.12 µg/mL (≈ 0.216 µM); in experiment [3], 0.25 µg/mL (≈ 0.449 µM); in experiment [4] it was over 16 µg/mL; in experiment [5], over 16 µg/mL; with S. aureus CB-951 it was 2 µg/mL (≈ 3.59 µM).
In the case of `CCn1cc(C(=O)O)c(=O)c2cc(F)c(N3CCC(CNC(=O)Nc4ccc(OC)cc4)CC3)c(F)c21` [Compound 16, 7-[4-(4-methoxyphenyl)aminocarbonylaminomethylpiperidinyl-1] 6,8-difluoro1-ethyl], the MIC in experiment [1] is 16 µg/mL (≈ 31.1 µM); in experiment [2], 0.06 µg/mL (≈ 0.117 µM); in experiment [3], 0.06 µg/mL (≈ 0.117 µM); in experiment [4], 8 µg/mL (≈ 15.5 µM); in experiment [5], over 16 µg/mL; in the experiment on S. aureus CB-951, 0.5 µg/mL (≈ 0.972 µM). For the same compound, the MBC in experiment [1] was 16 µg/mL (≈ 31.1 µM); in experiment [2], 0.06 µg/mL (≈ 0.117 µM); in experiment [3], 0.03 µg/mL (≈ 0.0583 µM); in experiment [4] it was 16 µg/mL (≈ 31.1 µM); in experiment [5], over 16 µg/mL; in the experiment on S. aureus CB-951, 1 µg/mL (≈ 1.94 µM).
For `CCn1cc(C(=O)O)c(=O)c2cc(F)c(N3CCC(CNC(=O)Nc4ccc(F)cc4F)CC3)c(F)c21` [Compound 18, 7-[4-(2,4-difluorophenyl)aminocarbonylaminomethylpiperidinyl-1] 6,8-difluoro 1-ethyl], the MIC in experiment [1] is 2 µg/mL (≈ 3.84 µM); in experiment [2] it was at most 0.12 µg/mL; in experiment [3], at most 0.12 µg/mL; in experiment [4], 2 µg/mL (≈ 3.84 µM); in experiment [5], over 16 µg/mL; with S. aureus CB-951, 0.25 µg/mL (≈ 0.48 µM). In addition, the MBC is 4 µg/mL (≈ 7.69 µM) in experiment [1]; at most 0.12 µg/mL in experiment [2]; at most 0.12 µg/mL in experiment [3]; 2 µg/mL (≈ 3.84 µM) in experiment [4]; over 16 µg/mL in experiment [5]; 0.25 µg/mL (≈ 0.48 µM) in the experiment on S. aureus CB-951.
For the compound `CCn1cc(C(=O)O)c(=O)c2cc(F)c(N3CCC(CN)CC3)c(F)c21` [Compound a, 7-(4-aminomethylpiperidinyl-1) 6,8-difluoro 1-ethyl 4-oxo 1,4-dihydroquinoleinyl-3 carboxylic acid], the “Minimal bactericidal concentration (MBC)” value in experiment [1] is 0,5 μg/ml; in experiment [2], 0,25 μg/ml; in experiment [3], 0,25 μg/ml; in experiment [4] it was 0,5 μg/ml; in experiment [5], 4 µg/mL (≈ 10.9 µM); with S. aureus CB-951, 2 µg/mL (≈ 5.47 µM). Further, the “Minimal inhibitory concentration (MIC)” value is 0,5 μg/ml in experiment [1]; 0,25 μg/ml in experiment [2]; 0,25 μg/ml in experiment [3]; 0,5 μg/ml in experiment [4]; 2 µg/mL (≈ 5.47 µM) in experiment [5]; 2 µg/mL (≈ 5.47 µM) with S. aureus CB-951.
Turning to `CCn1cc(C(=O)O)c(=O)c2cc(F)c(N3CCC(CN)CC3)c(F)c21` [Compound b, 7-(4-aminomethylpiperidinyl-1) 6,8-difluoro 1-ethyl 4-oxo 1,4-dihydroquinoleinyl-3 carboxylic acid], the “Minimal bactericidal concentration (MBC)” value in experiment [1] was 0,5 μg/ml; in experiment [2] it was 0,5 μg/ml; in experiment [3], 0,5 μg/ml; in experiment [4], 1 µg/mL (≈ 2.74 µM); in experiment [5], 8 µg/mL (≈ 21.9 µM); with S. aureus CB-951, 4 µg/mL (≈ 10.9 µM). Also, the “Minimal inhibitory concentration (MIC)” value is 0,5 μg/ml in experiment [1]; 0,5 μg/ml in experiment [2]; 0,5 μg/ml in experiment [3]; 0,5 μg/ml in experiment [4]; 4 µg/mL (≈ 10.9 µM) in experiment [5]; 4 µg/mL (≈ 10.9 µM) in the experiment with S. aureus CB-951.
For `CCn1cc(C(=O)O)c(=O)c2cc(F)c(N3CCN(C)CC3)cc21` [Pefloxacine, reference compound], the MIC in experiment [1] turned out to be 0.06 µg/mL (≈ 0.18 µM); in experiment [2] it was 0.12 µg/mL (≈ 0.36 µM); in experiment [3], 0.06 µg/mL (≈ 0.18 µM); in experiment [4] it was 1 µg/mL (≈ 3 µM); in experiment [5], 2 µg/mL (≈ 6 µM); in the experiment on S. aureus CB-951, 4 µg/mL (≈ 12 µM). Further, the MBC in experiment [1] worked out at 0.06 µg/mL (≈ 0.18 µM); in experiment [2], 0.25 µg/mL (≈ 0.75 µM); in experiment [3], 0.06 µg/mL (≈ 0.18 µM); in experiment [4], 1 µg/mL (≈ 3 µM); in experiment [5], 2 µg/mL (≈ 6 µM); with S. aureus CB-951, 4 µg/mL (≈ 12 µM).
